Assays:
γ-secretase [1] = target: T1, γ-secretase (Homo sapiens, UniProt P49768); test: Screening for γ-secretase-modulating activity: Aβ42 in supernatant of SKNBE2 cells carrying hAPP 695 wild type (Alphalisa); assay type: cell-based; details: SKNBE2 human neuroblastoma cells carrying hAPP 695 wild type, overnight incubation, Aβ42 in cell supernatant
T1 construct: endogenous in cells; host or cells: SKNBE2 human neuroblastoma cells (carrying hAPP 695 wild type as substrate)
How it was run: (§1)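 SKNBE2 neuroblastoma cells expressing wild-type hAPP 695 plated at 10^4 cells/well in Ultraculture with test compound, incubated overnight at 37° C. Aβ42 (C-terminal/N-terminal antibody pair) and Aβtotal (N-terminal/4G8 pair) in supernatant quantified by AlphaLISA. IC50 from 4-parameter fit of percent of compound-free control.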

γ-secretase [2] = target: T1, γ-secretase; test: Screening for γ-secretase-modulating activity: Aβtotal in supernatant of SKNBE2 cells carrying hAPP 695 wild type (Alphalisa); assay type: cell-based; details: SKNBE2 human neuroblastoma cells carrying hAPP 695 wild type, overnight incubation, Aβtotal in cell supernatant
How it was run: as §1

Aβ42 = test: In vivo efficacy: brain soluble Aβ42 in non-transgenic rodents (MSD electrochemiluminescence multiplex); design: species or system mouse; details: Mus musculus, po, 4 h, dose 30 mg/kg oral dosing, brain soluble fraction, animals sacrificed after 4 h, untreated animals (Ctrl) set at 100, read-out: Aβ42 (% vs Ctrl)_Mean
Excerpt: To determine whether acute administration of an Aβ42 lowering agent would reduce Aβ42 levels in vivo, non-transgenic rodents, e.g. mice or rats were used. Animals treated with the Aβ42 lowering agent were examined and compared to those untreated or treated with vehicle and brain levels of soluble Aβ42, Aβ40, Aβ38, and Aβ37 were quantitated by Meso Scale Discovery's (MSD) electrochemiluminescence detection technology. Treatment periods varied from hours (h) to days and were adjusted based on the results of the Aβ42 lowering once a time course of onset of effect could be established.
A typical protocol for measuring Aβ42 lowering in vivo is shown but it is only one of many variations that could be used to optimize the levels of detectable Aβ. For example, Aβ42 lowering compounds were formulated in 20% of Captisol® (a sulfo-butyl ether of β-cyclodextrin) in water or 20% hydroxypropyl βcyclodextrin. The Aβ42 lowering agents were administered as a single oral dose or by any acceptable route of administration to overnight fasted animals. After 4 h, the animals were sacrificed and Aβ42 levels were analysed.
Blood was collected by decapitation and exsanguinations in EDTA-treated collection tubes. Blood was centrifuged at 1900 g for 10 minutes (min) at 4° C. and the plasma recovered and flash frozen for later analysis. The brain was removed from the cranium and hindbrain. The cerebellum was removed and the left and right hemisphere were separated. The left hemisphere was stored at −18° C. for quantitative analysis of test compound levels. The right hemisphere was rinsed with phosphate-buffered saline (PBS) buffer and immediately frozen on dry ice and stored at −80° C. until homogenization for biochemical assays.
Mouse brains from non-transgenic animals were resuspended in 8 volumes of 0.4% DEA (diethylamine)/50 mM NaCl containing protease inhibitors (Roche-11873580001 or 04693159001) per gram of tissue, e.g. for 0.158 g brain, add 1.264 ml of 0.4% DEA. All samples were homogenized in the FastPrep-24 system (MP Biomedicals) using lysing matrix D (MPBio #6913-100) at 6 m/s for 20 seconds. Homogenates were centrifuged at 20800×g for 5 min and supernatants collected. Supernatants were centrifuged at 221.300×g for 50 min. The resulting high speed supernatants were then transferred to fresh eppendorf tubes. Nine parts of supernatant were neutralized with 1 part 0.5 M Tris-HCl pH 6.8 and used to quantify Aβ.
To quantify the amount of Aβ42, Aβ40, Aβ38, and Aβ37 in the soluble fraction of the brain homogenates, simultaneous specific detection of Aβ42, Aβ40, Aβ38, and Aβ37 was performed using MSD's electro-chemiluminescence multiplex detection technology. In this assay purified monoclonal antibodies specific for Abeta37 (JRD/Aβ37/3), Abeta38 (J&JPRD/Aβ38/5), Abeta40 (JRF/cAβ40/28), and Abeta42 (JRF/cAβ42/26) were coated on MSD 4-plex plates. Briefly, the standards (a dilution of synthetic Aβ42, Aβ40, Aβ38, and Aβ37) were prepared in 1.5 ml Eppendorf tube in Ultraculture, with final concentrations ranging from 10000 to 0.3 pg/m. The samples and standards were co-incubated with Sulfo-tag labelled JRF/rAβ/2 antibody to the N-terminus of Aβ as detector antibody. 50 μl of conjugate/sample or conjugate/standards mixtures were then added to the antibody-coated plate. The plate was allowed to incubate overnight at 4° C. in order to allow formation of the antibody-amyloid complex. Following this incubation and subsequent wash steps the assay was finished by adding read buffer according to the manufacturer's instructions (Meso Scale Discovery, Gaitherburg, Md.).
The SULFO-TAG emits light upon electrochemical stimulation initiated at the electrode. MSD Sector instrument SI6000 was used for signal read-out.
In this model a Aβ42 lowering compared to untreated animals would be advantageous, in particular a Aβ42 lowering with at least 10%, more in particular a Aβ42 lowering with at least 20%. […]

| SMILES | IC50 (γ-secretase [1]) [nM] | IC50 (γ-secretase [2]) [µM] | response vs control in vivo at 30 mg/kg (Aβ42) [%] |
| --- | --- | --- | --- |
| COc1cccc(CN2C(=O)c3ccc(-n4cnc(C)c4)c(=O)n3C[C@H]2C)c1 [compound 132] | 2140 | > 10 | 104 |
| Cc1cn(-c2ccc3n(c2=O)C[C@@H](C)N(Cc2ccc(F)c(F)c2)C3=O)cn1 [compound 133] | 1510 | > 10 | 87 |
| Cc1cn(-c2ccc3n(c2=O)C[C@@H](C)N(Cc2cc(CC(F)(F)F)cc(C(F)(F)F)c2)C3=O)cn1 [compound 134] | 100 | > 10 | 97 |
| Cc1cn(-c2ccc3n(c2=O)C[C@@H](C)N(Cc2cc(OC(F)(F)F)cc(C(F)(F)F)c2)C3=O)cn1 [compound 140] | 60 | > 10 | 42 |
| Cc1cn(-c2ccc3n(c2=O)C[C@@H](C)N(Cc2cc(Br)cc(C(F)(F)F)c2)C3=O)cn1 [compound 145] | 110 | > 10 | 71 |
| Cc1cn(-c2cc(F)c3n(c2=O)C[C@@H](C)N(Cc2cc(C(F)(F)F)cc(C(F)(F)F)c2)C3=O)cn1 [compound 158] | 460 | > 10 | 97 |
| Cc1cn(-c2ccc3n(c2=O)C[C@@H](C)N(Cc2cc(OCC(F)(F)F)cc(C(F)(F)F)c2)C3=O)cn1 [compound 166] | 50 | > 10 | 64 |
| Cc1cn(-c2ccc3n(c2=O)C[C@@H](C)N(Cc2c[nH]c4cc(F)c(Cl)cc24)C3=O)cn1 [compound 195] | 30 | 6.46 | 105 |

Reference: patent US20150141411A1, “SUBSTITUTED 3,4-DIHYDRO-2H-PYRIDO[1,2-A]PYRAZINE-1,6-DIONE DERIVATIVES USEFUL FOR THE TREATMENT OF (INTER ALIA) ALZHEIMER'S DISEASE” (Janssen Pharmaceuticals, Inc., priority 2012, published 2015)
